From patent US20240368159A1, “HPK1 DEGRADERS, COMPOSITIONS COMPRISING THE HPK1 DEGRADER, AND METHODS OF USING THE SAME” (BIOFRONT LTD, priority 2021, published 2024)

How the values were obtained:
[1] = tested on: HPK1 p-SLP-76; assay: HPK1 p-SLP-76 inhibition assay in human PBMC (HTRF); assay type: cell-based; settings: 6 h compound, anti-CD3 stimulation 20 min
Method: Human PBMC were purchased from OriCells (FPB004F-C). Before compound treatment, PBMC were starved in PRMI-1640 medium supplemented with 0.5% FBS overnight. The cell density was adjusted to 1*10^7 cells/mL in assay medium (RPMI-1640 no phenol red with 0.5% FBS) and 16 μL cell suspension was transferred per well to a 384-well plate (Corning #3765). 6× solution of test compound was prepared in assay medium and 4 μL was added per well to the 384-well plate. The plate was then incubated at 37° C., 5% CO2 for 6 h. PBMC in 384-well plate were stimulated with anti-CD3 (BD Biosciences #555329, final conc. is 10 ug/mL) for 20 min at 37° C., 5% CO2 by adding 4 μL 6× antibody solution per well. Phospho-SLP76 HTRF kit was purchased from Cisbio (63ADK076PEH). 8 μL 4× Lysis Buffer was added to 384-well plate after anti-CD3 stimulation. The plate was centrifuged at 1,000 rpm for 1 min, shaken at 250 rpm for 60 min and centrifuged again at 1,000 rpm for 5 min. Afterwards the cell lysates were transferred to the assay plate (Greiner #784075) with 16 μL per well. 4 μL detection antibody mix per well prepared in Detection Buffer was added to the assay plate, followed by centrifugation at 1,000 rpm for 1 min and incubation at 25° C. overnight.

[2] = molecular target: T1, HPK1 protein (Homo sapiens, UniProt Q92918); assay: HPK1 enzyme inhibition assay (ADP-Glo); assay type: biochemical; settings: MBP substrate, ATP, ADP-Glo readout
T1 construct: purchased Signal Chem M23-11G-10
T1 sequence (Q92918 1-346 limits assumed): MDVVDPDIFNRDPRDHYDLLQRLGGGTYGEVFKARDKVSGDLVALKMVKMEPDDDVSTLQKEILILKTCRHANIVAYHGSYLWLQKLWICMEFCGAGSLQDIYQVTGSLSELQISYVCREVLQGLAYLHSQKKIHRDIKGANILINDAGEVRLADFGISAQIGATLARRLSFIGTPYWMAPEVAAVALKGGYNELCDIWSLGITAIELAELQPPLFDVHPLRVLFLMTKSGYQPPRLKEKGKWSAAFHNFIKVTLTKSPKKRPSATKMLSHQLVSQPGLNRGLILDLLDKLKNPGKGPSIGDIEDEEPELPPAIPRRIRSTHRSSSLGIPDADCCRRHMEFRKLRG
Method: The compound was dissolved in 100% DMSO at the concentration of 10 mM. The HPK1 protein was purchased from Signal Chem (M23-11G-10). 2.5 μL per well of 2×HPK1 protein was added to assay plate containing the test compound, centrifuged at 1500 rpm for 1 minute, and then incubated at 25° C. for 60 minutes. MBP protein was purchased from Signal Chem (M42-51N) and ATP was purchased from Promega (V9102). The two were added 2.5 μL per well mixture of 2×MBP (0.2 ug/ul) and ATP (20 μM), centrifuged at 1500 rpm for 1 minute, then incubated at 25° C. for 60 minutes. Then added 5 μL of ADP-Glo from Promega (V9102) to the assay plate and depleted the unconsumed ATP for 60 minutes. Then centrifuged at 1500 rpm for 1 minute and incubated at 25° C. for 60 minutes. Finally, 10 μL of the kinase assay reagent from Promega (V9102) was added to the assay plate to convert ADP to ATP, centrifuged at 1500 rpm for 1 minute, incubate at 25° C. for 40 minutes. After 40 minutes incubation, the […] was determined. Based on the results, the IC50 value of the compound was calculated.

IC50 [1] [nM] | IC50 [2] [nM] | Compound
3000 to 10000 | 10 to 100 | CCc1c[nH]c2ncc(-c3cccc(N4CCN(C(=O)CCOCCOCCOc5cccc6c5CN(C5CCC(=O)NC5=O)C6=O)CC4=O)c3)c(Cl)c12 (stereo not shown) [Example 12, 3-(4-(2-(2-(3-(4-(3-(4-chloro-3-ethyl-1H-pyrrolo[2,3-b]pyridin-5-yl)phenyl)-3-oxopiperazin-1-yl)-3-oxopropoxy)ethoxy)ethoxy)-1-oxoisoindolin-2-yl)piperidine-2,6-dione]
300 to 3000 | 10 to 100 | O=C1CCC(N2C(=O)c3ccc(C4=CCN(CCCN5CCN(c6cccc(-c7cnc8[nH]cc(C9CC9)c8c7Cl)c6)C(=O)C5)CC4)cc3C2=O)C(=O)N1 (stereo not shown) [Example 70, 5-(1-(3-(4-(3-(4-chloro-3-cyclopropyl-1H-pyrrolo[2,3-b]pyridin-5-yl)phenyl)-3-oxopiperazin-1-yl)propyl)-1,2,3,6-tetrahydropyridin-4-yl)-2-(2,6-dioxopiperidin-3-yl)isoindoline-1,3-dione]
≤ 300 | ≤ 10 | O=C1CCC(N2C(=O)c3ccc(C4CCN(CCCN5CCN(c6cccc(-c7cnc8[nH]cc(C9CC9)c8c7Cl)c6)C(=O)C5)CC4)cc3C2=O)C(=O)N1 (stereo not shown) [Example 71, 5-(1-(3-(4-(3-(4-chloro-3-cyclopropyl-1H-pyrrolo[2,3-b]pyridin-5-yl)phenyl)-3-oxopiperazin-1-yl)propyl)piperidin-4-yl)-2-(2,6-dioxopiperidin-3-yl) isoindoline-1,3-dione]
≤ 300 | ≤ 10 | O=C1CCC(N2C(=O)c3ccc(N4CCN(CCCN5CCN(c6cccc(-c7cnc8[nH]cc(C9CC9)c8c7Cl)n6)C(=O)C5)CC4)cc3C2=O)C(=O)N1 (stereo not shown) [Example 80, 5-(4-(3-(4-(6-(4-chloro-3-cyclopropyl-1H-pyrrolo[2,3-b]pyridin-5-yl)pyridin-2-yl)-3-oxopiperazin-1-yl)propyl)piperazin-1-yl)-2-(2,6-dioxopiperidin-3-yl)isoindoline-1,3-dione]
≤ 300 | ≤ 10 | O=C1CCC(N2Cc3cc(N4CCN(CCCN5CCN(c6cccc(-c7cnc8[nH]cc(C9CC9)c8c7Cl)n6)C(=O)C5)CC4)ccc3C2=O)C(=O)N1 (stereo not shown) [Example 81, 3-(5-(4-(3-(4-(6-(4-chloro-3-cyclopropyl-1H-pyrrolo[2,3-b]pyridin-5-yl)pyridin-2-yl)-3-oxopiperazin-1-yl)propyl)piperazin-1-yl)-1-oxoisoindolin-2-yl)piperidine-2,6-dione]
≤ 300 | ≤ 10 | O=C1CCC(N2Cc3cc(C4CCN(CCCN5CCN(c6cccc(-c7cnc8[nH]cc(C9CC9)c8c7Cl)n6)C(=O)C5)CC4)ccc3C2=O)C(=O)N1 (stereo not shown) [Example 82, 3-(5-(1-(3-(4-(6-(4-chloro-3-cyclopropyl-1H-pyrrolo[2,3-b]pyridin-5-yl)pyridin-2-yl)-3-oxopiperazin-1-yl)propyl)piperidin-4-yl)-1-oxoisoindolin-2-yl)piperidine-2,6-dione]
≤ 300 | ≤ 10 | O=C1CCC(N2Cc3cc(C4=CCN(CCCN5CCN(c6cccc(-c7cnc8[nH]cc(C9CC9)c8c7Cl)n6)C(=O)C5)CC4)ccc3C2=O)C(=O)N1 (stereo not shown) [Example 83]
≤ 300 | ≤ 10 | O=C1CCC(N2C(=O)c3ccc(C4CCN(CCCN5CCN(c6cccc(-c7cnc8[nH]cc(C9CC9)c8c7Cl)n6)C(=O)C5)CC4)cc3C2=O)C(=O)N1 (stereo not shown) [Example 84, 5-(1-(3-(4-(6-(4-chloro-3-cyclopropyl-1H-pyrrolo[2,3-b]pyridin-5-yl)pyridin-2-yl)-3-oxopiperazin-1-yl)propyl)piperidin-4-yl)-2-(2,6-dioxopiperidin-3-yl)isoindoline-1,3-dione]
300 to 3000 | ≤ 10 | O=C1CCC(N2C(=O)c3ccc(C4=CCN(CCCN5CCN(c6cccc(-c7cnc8[nH]cc(C9CC9)c8c7Cl)n6)C(=O)C5)CC4)cc3C2=O)C(=O)N1 (stereo not shown) [Example 85, 5-(1-(3-(4-(6-(4-chloro-3-cyclopropyl-1H-pyrrolo[2,3-b]pyridin-5-yl)pyridin-2-yl)-3-oxopiperazin-1-yl)propyl)-1,2,3,6-tetrahydropyridin-4-yl)-2-(2,6-dioxopiperidin-3-yl)isoindoline-1,3-dione]
300 to 3000 | ≤ 10 | O=C1CCC(c2ccc(OC3CCN(CCCN4CCN(c5cccc(-c6cnc7[nH]cc(C8CC8)c7c6Cl)c5)C(=O)C4)CC3)cc2)C(=O)N1 (stereo not shown) [Example 86]
≤ 300 | ≤ 10 | O=C1CCC(c2ccc(C3CCN(CCCCN4CCN(c5cccc(-c6cnc7[nH]cc(C8CC8)c7c6Cl)c5)C(=O)C4)CC3)cc2)C(=O)N1 (stereo not shown) [Example 87]
> 10000 | 10 to 100 | O=C1CCC(N2C(=O)c3ccc(N4CC(CCOC(=O)N5CCN(c6cccc(-c7cnc8[nH]cc(CC(F)F)c8c7Cl)c6)C(=O)C5)C4)cc3C2=O)C(=O)N1 (stereo not shown) [Example 91]
300 to 3000 | ≤ 10 | Cn1nc(C2CCC(=O)NC2=O)c2ccc(C3CCN(CCCN4CCN(c5cccc(-c6cnc7[nH]cc(C8CC8)c7c6Cl)c5)C(=O)C4)CC3)cc21 (stereo not shown) [Example 92, 3-(6-(1-(3-(4-(3-(4-chloro-3-cyclopropyl-1H-pyrrolo[2,3-b]pyridin-5-yl)phenyl)-3-oxopiperazin-1-yl)propyl)piperidin-4-yl)-1-methyl-1H-indazol-3-yl)piperidine-2,6-dione]
300 to 3000 | ≤ 10 | O=C1CCN(c2cnc3cc(C4=CCN(CCCN5CCN(c6cccc(-c7cnc8[nH]cc(C9CC9)c8c7Cl)c6)C(=O)C5)CC4)ccn23)C(=O)N1 [Example 93, 1-(7-(1-(3-(4-(3-(4-chloro-3-cyclopropyl-1H-pyrrolo[2,3-b]pyridin-5-yl)phenyl)-3-oxopiperazin-1-yl)propyl)-1,2,3,6-tetrahydropyridin-4-yl)imidazo[1,2-a]pyridin-3-yl)dihydropyrimidine-2,4 (1H,3H)-dione]
≤ 300 | ≤ 10 | O=C1CCC(Nc2ccc(C3CCN(CCCS(=O)(=O)N4CCN(c5cccc(-c6cnc7[nH]cc(C8CC8)c7c6Cl)c5)C(=O)C4)CC3)cc2)C(=O)N1 (stereo not shown) [Example 104]
≤ 300 | ≤ 10 | O=C1CCC(Nc2ccc(N3CCN(CCCS(=O)(=O)N4CCN(c5cccc(-c6cnc7[nH]cc(C8CC8)c7c6Cl)c5)C(=O)C4)CC3)c(F)c2)C(=O)N1 (stereo not shown) [Example 105, 3-((4-(4-(3-((4-(3-(4-chloro-3-cyclopropyl-1H-pyrrolo[2,3-b]pyridin-5-yl)phenyl)-3-oxopiperazin-1-yl)sulfonyl)propyl)piperazin-1-yl)-3-fluorophenyl)amino)piperidine-2,6-dione]
300 to 3000 | ≤ 10 | O=C1CCC(N2C(=O)c3ccc(N4CCN(CCCS(=O)(=O)N5CCN(c6cccc(-c7cnc8[nH]cc(CC(F)F)c8c7Cl)c6)C(=O)C5)CC4)cc3C2=O)C(=O)N1 (stereo not shown) [Example 106]
